Measurements published in patent publication US4472408A, “Substituted trifluoromethylphenyltetrahydropyridines having an anorectic activity” (Sanofi, priority 1981, dated 1984).
Where a name gives a salt, the structure may show the parent alone. Read-outs that look alike come from different tables or passages of the source.

Columns and labels:
[1] = acute toxicity, LD50 in the rat by oral or intraperitoneal route; conditions: in vivo
From the text: the acute toxicity, expressed as LD50 in the rat by the oral or intraperitoneal route (A);

food intake in the rat [2] = test: anorectic activity, food intake in the rat; type: in vivo; conditions: 1 h, food taken during first hour, read-out: ID50 (B), dose inhibiting by 50% the food intake
Procedure: (§1) The anorectic activity was assessed by the method of the food intake in the rat. Female rats weighing 200 g are used, which were trained for 10 days to eat during a period of 4 hours and selected on the eighth day. At the end of the tenth day, the randomised animals were divided into a "control group" treated by the vehicle alone, and into several "treated groups". Treatment was effected by the intraperitoneal or oral route 30 minutes or 1 hour before presentation of the food and the quantity of food therefor taken during the first hour was then measured.
(§2) the anorectic activity, expressed as oral or intraperitoneal dose inhibiting by 50% the food intake (ID50, B);
(§3) the ratio between the acute toxicity and the anorectic activity which expresses the therapeutic index related to the acute toxocity (A/B).

[3] = anorectic activity, food intake in the rat; type: in vivo; conditions: in vivo, read-out: A/B, ratio acute toxicity to anorectic activity (therapeutic index)
Procedure: as §1, §2, §3

cerebral serotonin [4] = test: cerebral rates of serotonin after i.p. or oral administration (Curzon and Green); type: in vivo
From the text: Table II hereinbelow summarises the cerebral rates of serotonin, in percentage with respect to the controls, after intraperitoneal or oral administration of four representative compounds of the present invention. The determination of the cerebral rates, according to Curzon and Green (Brit. J. Pharmacol. 39, 653, 1970) was effected one hour and/or two hours after administration. Fenfluramine was used as reference product.

cerebral serotonin [5] = conditions: at doses very close to the anorectic dose; Arch. Intern. Pharmacodyn. Ther. 1967; cited from earlier work
[6] = biological target: post-synaptic serotonin receptors; test: 3H-serotonin binding to rat cortex membranes (Peroutka and Snyder)
Procedure: The affinity of the compounds of the present invention for the post-synaptic serotinin receptors was determined according to the method of Peroutka and Snyder (Molec. Pharmacol. 1979, 16, 687-699) which consists in incubating rat cortex membranes with a fixed concentration of ^3 H-serotonin in the presence of different concentrations of product. […] Fenfluramine was used as reference compound.

food intake in the rat [7] = conditions: background; cited from earlier work
[8] = background; cited from earlier work
[9] = i.p., 7.5 mg/kg, 2 hrs (fenfluramine: significant P < 0.01)

## N#CCCCCN1CC=C(c2cccc(C(F)(F)F)c2)CC1 [Example 4, 4-(3-trifluoromethylphenyl-1-(4-cyanobutyl)-1,2,3,6-tetrahydropyridine hydrochloride]
[1]; oral
  LD50: 336 mg/kg
Food intake in the rat [2]; oral
  ED50: 10.5 mg/kg
[3]; oral
  selectivity ratio: 32

## Cl.N#CCCCN1CC=C(c2cccc(C(F)(F)F)c2)CC1 [Example 3, 4-(3-trifluoromethylphenyl)-1-(3-cyanopropyl)-1,2,3,6-tetrahydropyridine hydrochloride]
[1]; ip
  LD50: 258 mg/kg
[1]; oral
  LD50: 538 mg/kg
Food intake in the rat [2]; oral
  ED50: 11.7 mg/kg
Food intake in the rat [2]; ip, i.p.
  ED50: 11.1 mg/kg
[3]; ip
  selectivity ratio: 23.3
[3]; oral
  selectivity ratio: 46

## Cl.FC(F)(F)c1cccc(C2=CCN(CC3CC3)CC2)c1 [Example 7, 4-(3-trifluoromethylphenyl)-1-cyclopropylmethyl-1,2,3,6-tetrahydropyridine hydrochloride]
[1]; ip
  LD50: 135 mg/kg
Cerebral serotonin [4]; i.p., 3.25 mg/kg, 2 hrs
  cerebral rates of serotonin: 111 % with respect to controls
Cerebral serotonin [4]; [9]
  cerebral rates of serotonin: 123 % with respect to controls
Cerebral serotonin [4]; i.p., 15.0 mg/kg, 2 hrs
  cerebral rates of serotonin: 119 % with respect to controls
Food intake in the rat [2]; ip, i.p.
  ED50: 5.5 mg/kg
[3]; ip
  selectivity ratio: 24.6

## Cl.FC(F)(F)c1cccc(C2=CCN(CCC3CCCCC3)CC2)c1 [Example 10, 4-(3-trifluoromethylphenyl)-1-(2-cyclohexylethyl)-1,2,3,6-tetrahydropyridine hydrochloride]
[1]; oral
  LD50: 488 mg/kg
Cerebral serotonin [4]; oral, 1.25 mg/kg, 2 hrs
  cerebral rates of serotonin: 99 % with respect to controls
Cerebral serotonin [4]; oral, 2.5 mg/kg, 2 hrs
  cerebral rates of serotonin: 95 % with respect to controls
Cerebral serotonin [4]; oral, 5 mg/kg, 2 hrs
  cerebral rates of serotonin: 101 % with respect to controls
Food intake in the rat [2]; oral
  ED50: 2.6 mg/kg
[3]; oral
  selectivity ratio: 188

## CCNC(C)Cc1cccc(C(F)(F)F)c1 (centres unmarked) [fenfluramine, reference compound]
Cerebral serotonin [5]
  effect on cerebral rates of serotonin (in words): induces a significant reduction in the cerebral rates of serotonin
[6]
  IC50: > 10 µM
Cerebral serotonin [4]; i.p., 5 mg/kg, 1 hr, significant P < 0.05
  cerebral rates of serotonin: 82.9 % with respect to controls
Cerebral serotonin [4]; i.p., 7.5 mg/kg, 1 hr, significant P < 0.05
  cerebral rates of serotonin: 81.6 % with respect to controls
Cerebral serotonin [4]; [9]
  cerebral rates of serotonin: 53.1 % with respect to controls
Cerebral serotonin [4]; i.p., 10 mg/kg, 1 hr, significant P < 0.01
  cerebral rates of serotonin: 79.0 % with respect to controls
Cerebral serotonin [4]; in vivo
  effect on cerebral rates of serotonin (in words): induces a significant reduction of cerebral serotonin
Food intake in the rat [7]
  anorectic activity (in words): excellent anorectic activity
Food intake in the rat [2]; oral
  ED50: 4 mg/kg
Food intake in the rat [2]; ip, i.p.
  ED50: 5.4 mg/kg
[3]; ip
  selectivity ratio: 15.8
[3]; oral
  selectivity ratio: 25.1
[8]
  sedative or stimulant action (in words): instead of being stimulant, has a certain sedative action

## CC(=O)CCN1CC=C(c2cccc(C(F)(F)F)c2)CC1.Cl [Example 6, 4-(3-trifluoromethylphenyl)-1-(3-oxobutyl)-1,2,3,6-tetrahydropyridine hydrochloride]
[1]; ip
  LD50: 134 mg/kg
[1]; oral
  LD50: 299 mg/kg
Cerebral serotonin [4]; i.p., 3.25 mg/kg, 2 hrs
  cerebral rates of serotonin: 109 % with respect to controls
Cerebral serotonin [4]; [9]
  cerebral rates of serotonin: 108 % with respect to controls
Cerebral serotonin [4]; i.p., 15.0 mg/kg, 2 hrs
  cerebral rates of serotonin: 116 % with respect to controls
Food intake in the rat [2]; oral
  ED50: 11.8 mg/kg
Food intake in the rat [2]; ip, i.p.
  ED50: 6.5 mg/kg
[3]; ip
  selectivity ratio: 20.6
[3]; oral
  selectivity ratio: 25.3

## Cl.N#CCCN1CC=C(c2cccc(C(F)(F)F)c2)CC1 [Example 2, 4-(3-trifluoromethylphenyl)-1-(2-cyanoethyl)-1,2,3,6-tetrahydropyridine hydrochloride]
[1]; ip
  LD50: 206 mg/kg
[1]; oral
  LD50: 254 mg/kg
Cerebral serotonin [4]; [9]
  cerebral rates of serotonin: 128 % with respect to controls
Cerebral serotonin [4]; i.p., 15.0 mg/kg, 1 hr
  cerebral rates of serotonin: 131.0 % with respect to controls
Cerebral serotonin [4]; i.p., 15.0 mg/kg, 2 hrs
  cerebral rates of serotonin: 146 % with respect to controls
Cerebral serotonin [4]; i.p., 30.0 mg/kg, 2 hrs
  cerebral rates of serotonin: 146 % with respect to controls
Food intake in the rat [2]; oral
  ED50: 9.5 mg/kg
Food intake in the rat [2]; ip, i.p.
  ED50: 12 mg/kg
[3]; ip
  selectivity ratio: 17.1
[3]; oral
  selectivity ratio: 26.7

## CC(=O)CN1CC=C(c2cccc(C(F)(F)F)c2)CC1.Cl [Example 5, 4-(3-trifluoromethylphenyl)-1-acetonyl-1,2,3,6-tetrahydropyridine hydrochloride]
[1]; ip
  LD50: 165 mg/kg
Food intake in the rat [2]; ip, i.p.
  ED50: 10.8 mg/kg
[3]; ip
  selectivity ratio: 15.3
